system: human KRAS G12C mutated cell line MIA PaCa-2; assay: Inhibition of proliferation of MIA PaCa-2 cells (CellTiter-Glo, 7 day); type: cell-based; conditions: 168 h, Table 1, CellTiter-Glo luminescence read on day 7, read-out: MIA PaCa-2 IC50
Excerpt: The present example evaluates the ability of compounds provided herein to inhibit proliferation of KRAS mutant cells.
The proliferation inhibitory effect was investigated in the human KRAS G12C mutated cell line MIA PaCa-2 (Yunis et al., 1977, Int. J. Cancer 19(1):128-135; ATCC catalog no. CRL-1420). Cells were maintained in RPMI-1640 medium (ThermoFisher catalog no. 61870036) supplemented with 10% of Heat Inactivated FBS (ThermoFisher catalog no. A31605) and 1% Pen-Strep (ThermoFisher catalog no. 10378016) and cultured at 37° C. in a humidified incubator with 5% CO2. Cell lines were grown by adhering to culture flasks, and the cells were maintained in a range 70%-80% confluency.
ATP is present in all metabolically active cells and is considered as a marker for cell viability and proliferation. Metabolic cell activity was determined using the CellTiter-Glo kit (Promega catalog no. G7572), an ATP monitoring system based on the production of luminescence by the reaction of ATP with added UltraGlo® recombinant luciferase (Kawano et al., 2016, PLOS One, 8; 11(7):e0158888), according to the supplier's experimental recommendations. The assay was based on a 96 well plate format.
Test compounds were dissolved at 10 mM in DMSO (Sigma catalog no. D8418; purity >99.9%) and stored at −20° C. Eight concentrations of test compound were assessed in duplicate in an individual test occasion in parallel in the selected cell lines. MRTX-849 and AMG-510 were used as reference compounds and tested in duplicate at eight concentrations. 100% of proliferation is represented by the untreated cells (0.2% DMSO).
(§1) On the day of the experiment (TO), cells were detached with TrypLE (ThermoFisher catalog no. 12604054) and quantified using the Vi-CELL XR Cell Viability (Beckman Coulter) analyzer and diluted with fresh medium to obtain the cell density of about 1000 cells per 200 μL medium. 200 μL of cell suspension were added into wells in the 96 well plate.
After 2 hours from seeding cells, compounds were added using a D300e compound dispenser (Tecan Trading AG) at desired concentrations with shaking between each compound dispensed. Cell plates containing 200 μL/well were incubated at 37° C. in a humidified incubator with 5% CO2.
On day T3, 150 μL of growth media per well were removed from plates containing the samples, 150 uL fresh growth media were added to each well, and fresh compounds were added using a D300e compound dispenser (Tecan Trading AG) at desired concentrations with shaking between each compound dispensed. Cell plates containing 200 uL/well were incubated at 37° C. in a humidified incubator with 5% CO2. On day T7 plates containing the samples were equilibrated at room temperature for approximately 15 min, and then 40 μL/well of the Promega CellTiterGlo® reagent was added. Contents were mixed for 30 minutes on an orbital shaker to induce cell lysis. Luminescence was read using a Synergy Neo 2 (Agilent Technologies.
Data was expressed as % of inhibition compared to the 0.2% DMSO negative control, and is calculated as follows: % inhibition=100−[(RLU sample)×100/(RLU controls*)], where * indicates the average for 0.2% DMSO. […]
as §1, with “12604054),” for “12604054) and”, “resuspended in” for “diluted with”, “at a” for “to obtain the”, “to each well of a” for “into wells in the”
Two hours after seeding cells, compounds were added at desired concentrations using a D300e compound dispenser (Tecan Trading AG) with shaking after each compound addition. Assay plates were incubated at 37° C. in a humidified incubator with 5% CO2.
On day 3 (T3) 150 μL of medium from assay plates were removed. 150 μL fresh medium and compounds were added at desired concentrations using a D300e compound dispenser (Tecan Trading AG) with shaking after each compound addition. […]

| Compound | IC50 |
| --- | --- |
| C=CC(=O)N1[C@@H]2CC[C@H]1CN(c1nc(OC[C@@]34CCCN3C[C@H](F)C4)nc3c(F)c(-c4cc(O)cc(Cl)c4C4CC4)ccc13)C2 [Compound 1, 1-((1R,5S)-3-(7-(3-chloro-2-cyclopropyl-5-hydroxyphenyl)-8-fluoro-2-(((2R,7aS)-2-fluorotetrahydro-1H-pyrrolizin-7a(5H)-yl)methoxy)quinazolin-4-yl)-3,8-diazabicyclo[3.2.1]octan-8-yl)prop-2-en-1-one] | 0.000742 µM |

same assay, conditions: 168 h, Table 2, CellTiter-Glo luminescence read on day 7, read-out: MIA PaCa-2 IC50

| Compound | IC50 |
| --- | --- |
| Oc1cc(Cl)c(C2CC2)c(-c2ccc3c(N4C[C@H]5CC[C@@H](C4)N5)nc(OC[C@@]45CCCN4C[C@H](F)C5)nc3c2F)c1 [Compound 201, 3-(4-((1R,5S)-3,8-diazabicyclo[3.2.1]octan-3-yl)-8-fluoro-2-(((2R,7aS)-2-fluorotetrahydro-1H-pyrrolizin-7a(5H)-yl)methoxy)quinazolin-7-yl)-5-chloro-4-cyclopropylphenol] | 0.358 µM |
| Oc1cc(Cl)c(C2CC2)c(-c2ccc3c(C4CC5CCC(C4)N5)nc(OCC45CCCN4CC(F)C5)nc3c2F)c1 (stereo not drawn) [Compound 205] | 0.358 µM |

same assay, conditions: 168 h, Table 3, 7 day, mean, read-out: MIA PaCa-2 IC50 (μM) 7 day Mean

| Compound | IC50 |
| --- | --- |
| C=CC(=O)N1CCC(c2nc(OC[C@@]34CCCN3C[C@H](F)C4)nc3c(F)c(-c4cc(O)cc5ccc(F)c(F)c45)ncc23)C[C@H]1C (stereo in doubt) [Compound 334, 1-[(2R)-4-[7-(7,8-difluoro-3-hydroxy-1-naphthyl)-8-fluoro-2-[[(2R,8S)-2-fluoro-1,2,3,5,6,7-hexahydropyrrolizin-8-yl]methoxy]pyrido[4,3-d]pyrimidin-4-y1]-2-methyl-1-piperidyl]prop-2-en-1-one] | 0.00443 µM |
| C=CC(=O)N1C2CCC1CN(c1nc(OCC34CCCN3CCC4)nc3c(F)c(-c4cccc(Cl)c4C4CC4)ncc13)C2 [Compound 301, 1-[3-[7-(3-chloro-2-cyclopropyl-phenyl)-8-fluoro-2-(1,2,3,5,6,7-hexahydropyrrolizin-8-ylmethoxy)pyrido[4,3-d]pyrimidin-4-yl]-3,8-diazabicyclo[3.2.1]octan-8-yl]prop-2-en-1-one] | 0.16 µM |
| C=CC(=O)N1C2CCC1CN(c1nc(OC[C@@]34CCCN3C[C@H](F)C4)nc3c(F)c(-c4cc(O)cc(Cl)c4C4CC4)ncc13)C2 [Compound 302, 1-[3-[7-(3-chloro-2-cyclopropyl-5-hydroxy-phenyl)-8-fluoro-2-[[(2R,8S)-2-fluoro-1,2,3,5,6,7-hexahydropyrrolizin-8-yl]methoxy]pyrido[4,3-d]pyrimidin-4-yl]-3,8-diazabicyclo[3.2.1]octan-8-yl]prop-2-en-1-one] | 0.000287 µM |
| C#Cc1c(F)ccc2cccc(-c3ncc4c(N5CC6CCC(C5)N6C(=O)C=C)nc(OCC56CCCN5CCC6)nc4c3F)c12 [Compound 303, 1-[3-[7-(8-ethynyl-7-fluoro-1-naphthyl)-8-fluoro-2-(1,2,3,5,6,7-hexahydropyrrolizin-8-ylmethoxy)pyrido[4,3-d]pyrimidin-4-yl]-3,8-diazabicyclo[3.2.1]octan-8-yl]prop-2-en-1-one] | 0.0006 µM |
| C=CC(=O)N1C2CCC1CN(c1nc(OC[C@@]34CCCN3C[C@H](F)C4)nc3c(F)c(-c4c(C)c(Cl)cc5[nH]ncc45)ncc13)C2 [Compound 304, 1-[3-[7-(6-chloro-5-methyl-1H-indazol-4-yl)-8-fluoro-2-[[(2R,8S)-2-fluoro-1,2,3,5,6,7-hexahydropyrrolizin-8-yl]methoxy]pyrido[4,3-d]pyrimidin-4-yl]-3,8-diazabicyclo[3.2.1]octan-8-yl]prop-2-en-1-one] | 0.017 µM |
| C=CC(=O)N1C2CCC1CN(c1nc(OC[C@@]34CCCN3C[C@H](F)C4)nc3c(F)c(-c4cc(O)cc5cccc(Cl)c45)ncc13)C2 [Compound 305, 1-[3-[7-(8-chloro-3-hydroxy-1-naphthyl)-8-fluoro-2-[[(2R,8S)-2-fluoro-1,2,3,5,6,7-hexahydropyrrolizin-8-yl]methoxy]pyrido[4,3-d]pyrimidin-4-y1]-3,8-diazabicyclo[3.2.1]octan-8-yl]prop-2-en-1-one] | 0.0023 µM |

— patent US20240409558A1, “IRREVERSIBLE INHIBITORS OF KRAS” (BIOMEA FUSION, INC., priority 2021, published 2024)
